# Test results taken from patent US10597388B2, “Pyridazinone herbicides” (FMC CORPORATION, priority 2014, dated 2020).
# How the values were obtained:
# Assay in all cases: Test D controlled growth environment herbicide test, pre- and postemergence
# Type in all cases: in vivo
# [1] = test system: wheat, winter (winter wheat, Triticum aestivum)
# Outline: (§1)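 Pre-emergence: seeds sown in silt loam soil were sprayed with compound in a non-phytotoxic solvent mix containing surfactant. Post-emergence: plants at 2 to 18 cm (1- to 4-leaf stage) in peat moss/vermiculite medium got the same formulation. Visual 0–100 rating versus controls after 14 to 21 d.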
# [2] = test system: chickweed (common chickweed, Stellaria media)
# Outline: as §1
# [3] = test system: radish, wild (wild radish, Raphanus raphanistrum)
# Outline: as §1
# [4] = test system: blackgrass (Alopecurus myosuroides)
# Outline: as §1
# [5] = test system: chamomile (scentless chamomile, Matricaria inodora)
# Outline: as §1
# [6] = test system: bromegrass, downy (downy bromegrass, Bromus tectorum)
# Outline: as §1
# kochia (Kochia scoparia) = test system: kochia (Kochia scoparia)
# Outline: as §1
# [7] = test system: ryegrass, Italian (Italian ryegrass, Lolium multiflorum)
# Outline: as §1
# [8] = test system: deadnettle (henbit deadnettle, Lamium amplexicaule)
# Outline: as §1
# [9] = test system: Russian thistle (Salsola kali)
# Outline: as §1
# [10] = test system: speedwell (bird's-eye speedwell, Veronica persica)
# Outline: as §1
# [11] = test system: field violet (Viola arvensis)
# Outline: as §1
# [12] = test system: windgrass (Apera spica-venti)
# Outline: as §1
# [13] = test system: lambsquarters (Chenopodium album)
# Outline: as §1
# [14] = Postemergence, 31 g ai/ha, scale 0 to 100 (0 no effect, 100 complete control)
# [15] = Postemergence, 125 g ai/ha, visual rating on scale 0 (no effect) to 100 (complete control), 14 to 21 d
# [16] = Postemergence, 250 g ai/ha, scale 0 to 100 (0 no effect, 100 complete control)
# [17] = Preemergence, 125 g ai/ha, scale 0 to 100 (0 no effect, 100 complete control)
# [18] = Preemergence, 250 g ai/ha, scale 0 to 100, 0 no effect, 100 complete control
# [19] = postemergence, 62 g ai/ha, scale 0 to 100, 0 no effect, 100 complete control
# [20] = Preemergence, 62 g ai/ha, scale 0 to 100 (0 no effect, 100 complete control)
structure (smiles),measurement,setting,value
CC(=O)Oc1c(C)nn(C)c(=O)c1-c1c(C)sc2ccc(Cl)cc12 [Compound 108],"Wheat, Winter plant response rating",[1]; [14],10
same,"Plant response rating, Wheat, Winter",[1]; [15],20
same,"Plant response rating, Wheat, Winter",[1]; [16],20
same,"Plant response rating (scale of 0 to 100), Wheat, Winter","[1]; Preemergence, 31 g ai/ha",0
same,"Plant response rating (scale of 0 to 100), Wheat, Winter","[1]; Preemergence, 62 g ai/ha",0
same,"Plant response rating, Wheat, Winter",[1]; [17],10
same,"Plant response rating, Wheat, Winter",[1]; [18],30
same,"Plant response rating, Wheat, Winter",[1]; [19],15
same,Chickweed plant response rating,[2]; [14],90
same,"Plant response rating, Chickweed",[2]; [15],100
same,"Plant response rating, Chickweed",[2]; [16],100
same,"Plant response rating (scale of 0 to 100), Chickweed","[2]; Preemergence, 31 g ai/ha",100
same,"Plant response rating (scale of 0 to 100), Chickweed","[2]; Preemergence, 62 g ai/ha",100
same,"Plant response rating, Chickweed",[2]; [17],100
same,"Plant response rating, Chickweed",[2]; [18],100
same,"Plant response rating, Chickweed",[2]; [19],100
same,"Radish, Wild plant response rating",[3]; [14],75
same,"Plant response rating, Radish, Wild",[3]; [15],85
same,"Plant response rating, Radish, Wild",[3]; [16],90
same,"Plant response rating (scale of 0 to 100), Radish, Wild","[3]; Preemergence, 31 g ai/ha",45
same,"Plant response rating (scale of 0 to 100), Radish, Wild","[3]; Preemergence, 62 g ai/ha",100
same,"Plant response rating, Radish, Wild",[3]; [17],100
same,"Plant response rating, Radish, Wild",[3]; [18],90
same,"Plant response rating, Radish, Wild",[3]; [19],75
same,Blackgrass plant response rating,[4]; [14],20
same,"Plant response rating, Blackgrass",[4]; [15],65
same,"Plant response rating, Blackgrass",[4]; [16],75
same,"Plant response rating (scale of 0 to 100), Blackgrass","[4]; Preemergence, 31 g ai/ha",15
same,"Plant response rating, Blackgrass",[4]; [20],35
same,"Plant response rating, Blackgrass",[4]; [17],50
same,"Plant response rating, Blackgrass",[4]; [18],80
same,"Plant response rating, Blackgrass",[4]; [19],45
same,Chamomile plant response rating,[5]; [14],75
same,"Plant response rating, Chamomile",[5]; [15],95
same,"Plant response rating, Chamomile",[5]; [16],100
same,"Plant response rating, Chamomile",[5]; [19],85
same,"Bromegrass, Downy plant response rating",[6]; [14],25
same,"Plant response rating, Bromegrass, Downy",[6]; [15],40
same,"Plant response rating, Bromegrass, Downy",[6]; [16],65
same,"Plant response rating (scale of 0 to 100), Bromegrass, Downy","[6]; Preemergence, 31 g ai/ha",25
same,"Plant response rating, Bromegrass, Downy",[6]; [20],25
same,"Plant response rating, Bromegrass, Downy",[6]; [17],70
same,"Plant response rating, Bromegrass, Downy",[6]; [18],75
same,"Plant response rating, Bromegrass, Downy",[6]; [19],30
same,Kochia plant response rating,kochia (Kochia scoparia); [14],90
same,"Plant response rating, Kochia",kochia (Kochia scoparia); [15],100
same,"Plant response rating, Kochia",kochia (Kochia scoparia); [16],100
same,"Plant response rating (scale of 0 to 100), Kochia","kochia (Kochia scoparia); Preemergence, 31 g ai/ha",60
same,"Plant response rating (scale of 0 to 100), Kochia","kochia (Kochia scoparia); Preemergence, 62 g ai/ha",95
same,"Plant response rating, Kochia",kochia (Kochia scoparia); [17],80
same,"Plant response rating, Kochia",kochia (Kochia scoparia); [18],100
same,"Plant response rating, Kochia",kochia (Kochia scoparia); [19],100
same,"Ryegrass, Italian plant response rating",[7]; [14],90
same,"Plant response rating, Ryegrass, Italian",[7]; [15],95
same,"Plant response rating, Ryegrass, Italian",[7]; [16],100
same,"Plant response rating (scale of 0 to 100), Ryegrass, Italian","[7]; Preemergence, 31 g ai/ha",80
same,"Plant response rating (scale of 0 to 100), Ryegrass, Italian","[7]; Preemergence, 62 g ai/ha",98
same,"Plant response rating, Ryegrass, Italian",[7]; [17],100
same,"Plant response rating, Ryegrass, Italian",[7]; [18],100
same,"Plant response rating, Ryegrass, Italian",[7]; [19],90
same,Deadnettle plant response rating,[8]; [14],35
same,"Plant response rating, Deadnettle",[8]; [15],75
same,"Plant response rating, Deadnettle",[8]; [16],90
same,"Plant response rating (scale of 0 to 100), Deadnettle","[8]; Preemergence, 31 g ai/ha",0
same,"Plant response rating (scale of 0 to 100), Deadnettle","[8]; Preemergence, 62 g ai/ha",25
same,"Plant response rating, Deadnettle",[8]; [17],95
same,"Plant response rating, Deadnettle",[8]; [18],100
same,"Plant response rating, Deadnettle",[8]; [19],50
same,Russian Thistle plant response rating,[9]; [14],65
same,"Plant response rating, Russian Thistle",[9]; [15],75
same,"Plant response rating, Russian Thistle",[9]; [16],90
same,"Plant response rating (scale of 0 to 100), Russian Thistle","[9]; Preemergence, 31 g ai/ha",0
same,"Plant response rating (scale of 0 to 100), Russian Thistle","[9]; Preemergence, 62 g ai/ha",15
same,"Plant response rating, Russian Thistle",[9]; [17],70
same,"Plant response rating, Russian Thistle",[9]; [18],100
same,"Plant response rating, Russian Thistle",[9]; [19],70
same,Speedwell plant response rating,[10]; [14],60
same,"Plant response rating, Speedwell",[10]; [15],70
same,"Plant response rating, Speedwell",[10]; [16],80
same,"Plant response rating, Speedwell",[10]; [19],65
same,Field Violet plant response rating,[11]; [14],90
same,"Plant response rating, Field Violet",[11]; [15],100
same,"Plant response rating, Field Violet",[11]; [16],100
same,"Plant response rating (scale of 0 to 100), Field Violet","[11]; Preemergence, 31 g ai/ha",90
same,"Plant response rating (scale of 0 to 100), Field Violet","[11]; Preemergence, 62 g ai/ha",100
same,"Plant response rating, Field Violet",[11]; [17],100
same,"Plant response rating, Field Violet",[11]; [18],100
same,"Plant response rating, Field Violet",[11]; [19],95
same,Windgrass plant response rating,[12]; [14],65
same,"Plant response rating, Windgrass",[12]; [15],75
same,"Plant response rating, Windgrass",[12]; [16],85
same,"Plant response rating (scale of 0 to 100), Windgrass","[12]; Preemergence, 31 g ai/ha",25
same,"Plant response rating (scale of 0 to 100), Windgrass","[12]; Preemergence, 62 g ai/ha",50
same,"Plant response rating, Windgrass",[12]; [17],75
same,"Plant response rating, Windgrass",[12]; [18],95
same,"Plant response rating, Windgrass",[12]; [19],70
same,Lambsquarters plant response rating,[13]; [14],90
same,"Plant response rating, Lambsquarters",[13]; [15],100
same,"Plant response rating, Lambsquarters",[13]; [16],100
same,"Plant response rating (scale of 0 to 100), Lambsquarters","[13]; Preemergence, 31 g ai/ha",100
same,"Plant response rating (scale of 0 to 100), Lambsquarters","[13]; Preemergence, 62 g ai/ha",100
same,"Plant response rating, Lambsquarters",[13]; [17],100
same,"Plant response rating, Lambsquarters",[13]; [18],100
same,"Plant response rating, Lambsquarters",[13]; [19],95
